Test results taken from patent US20090170801A1 (Beijing Century Biocom Pharmaceutical Technology Co. Ltd., priority 2006, published 2009).

What was measured:
decapitated mice = experiment: Breathing time, breathing frequency, brain index and brain water content in decapitated mice; type: in vivo, ICR mice; conditions: 2 mg/kg tail i.v.
Method: The model group was administrated normal salt. At 15 minutes after administration, the mice were decapitated by a pair of scissors. The mouth breathing time, breathing frequency and brain water content were recorded and compared with other groups. Whole brains were collected. After the wet weight was obtained, they were dried in an oven at 100° C. for 24 hours. The average value was taken to calculate brain water content: brain water content (%)=[…]. Brain index: brain index=brain wet weight (g)/body weight (g)×100%.

brain of ischemic mice = experiment: Cerebral ischemia in mice with common carotid artery ligation and reperfusion (brain LDH and SOD); type: in vivo; conditions: 2 mg/kg tail i.v.
Method: Grouped mice were respectively administered test substance, nimodipine or normal salt by tail intravenous injection. After 15 minutes, the mice were anesthetized with 3.5% chloral hydrate, fixed in the back. The right and left common carotid artery and vagus nerve were exposed, and 4-0 suture was inserted under the bilateral carotid artery. The suture was tightened to block blood flow for 5 minutes. Then the line was loosened to restore blood flow for 10 minutes. The operation was repeated three times, and an ischemia-reperfusion model in mice was established. After the last reperfusion, the mice were decapitated and brain collected. In the control group, only the bilateral carotid arteries were exposed, without a suture being inserted.

`COCCOC(=O)C1=C(C)NC(C)=C(C(=O)OC(C)C)C1c1cccc([N+](=O)[O-])c1` (stereo not drawn) [Nimodipine, nimodipine] gave a Brain water content (decapitated mice) of 75.8 ± 1.0 %, an LDH (brain of ischemic mice) of 11.3 ± 6.6 U/mg and an SOD (brain of ischemic mice) of 144.77 ± 21.61 U/mg.
